These results are taken from patent publication US8404692B2, “Pyrimidin-4-yl-3, 4-dihydro-2H-pyrrolo [1,2A] pyrazin-1-one compounds” (Cyclacel Limited, priority 2005, dated 2013).

This test addresses T1, aurora-A (human) (Homo sapiens, UniProt O14965).
T1 construct: purchased Upstate, Dundee, UK
T1 sequence (O14965 1-403): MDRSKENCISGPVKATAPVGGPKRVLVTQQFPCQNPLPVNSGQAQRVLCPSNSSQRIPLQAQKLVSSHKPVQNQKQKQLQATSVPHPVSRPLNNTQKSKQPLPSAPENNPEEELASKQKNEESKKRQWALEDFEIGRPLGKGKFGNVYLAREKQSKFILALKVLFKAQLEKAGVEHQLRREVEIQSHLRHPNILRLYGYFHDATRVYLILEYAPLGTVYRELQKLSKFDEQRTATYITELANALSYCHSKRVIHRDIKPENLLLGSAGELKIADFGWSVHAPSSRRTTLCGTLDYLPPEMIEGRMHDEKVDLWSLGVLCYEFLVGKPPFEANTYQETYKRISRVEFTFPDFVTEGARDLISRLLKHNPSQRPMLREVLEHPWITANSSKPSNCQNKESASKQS
Briefly: Aurora-A (human) kinase assay. In kind it is biochemical. The following applies: read-out: Activity (Aurora A activity, IC50 grading). On the procedure:
This was achieved by measurement of incorporation of radioactive phosphate from ATP into Kemptide substrate (LRRASLG), upon phosphorylation by commercially obtained aurora-A (human, Upstate; Dundee, UK). Assays were performed using 96-well plates and appropriate assay buffers (20 mM Tris, 25 mM β-glycerophosphate, 5 mM EGTA, 1 mM DTT, 1 mM sodium vanadate, pH 7.5), into which were added 2-5 ng of active enzyme with 500 μM substrate (Kemptide). The reactions were initiated by addition of MATP mix (15 mM MgCl2+100 μM ATP with 15-25 kBq per well of [γ-^32P]-ATP) and mixtures incubated for 30 min at 30° C. Reactions were stopped by addition of an equal volume of 75 mM aq orthophosphoric acid, followed by filtration through p81 filterplates (Whatman Polyfiltronics, Kent, UK). After washing 4 times with 75 mM aq orthophosphoric acid, plates were dried, scintillant added and incorporated radioactivity measured in a scintillation counter (TopCount, Packard Instruments, Pangbourne, Berks, UK). Compounds for kinase assay were made up as 10 mM stocks in DMSO and diluted into 10% DMSO in assay buffer. Data was analysed using curve-fitting software (XLfit version 4.0.2, IDBS, Guildford, Surrey, UK) to determine IC50 values (concentration of test compound which inhibits kinase activity by 50%).
Broadly, the IC50 is the midpoint of a concentration-inhibition curve. On to `Cc1c(-c2ccnc(Nc3ccc(F)cc3F)n2)c(C)n2c1C(=O)NCC2` [Example I-66, 7-[2-(2,4-Difluoro-phenylamino)-pyrimidin-4-yl]-6,8-dimethyl-3,4-dihydro-2H-pyrrolo[1,2-a]pyrazin-1-one], for which the IC50 is less than 10 µM. `Cc1c(-c2ccnc(Nc3ccc(-c4nncn4C)cc3)n2)c(C)n2c1C(=O)NCC2` [Example I-79, 6,8-Dimethyl-7-{2-[4-(4-methyl-4H-[1,2,4]triazol-3-yl)-phenylamino]-pyrimidin-4-yl}-3,4-dihydro-2H-pyrrolo[1,2-a]pyrazin-1-one]: the half-maximal inhibitory concentration (IC50) is less than 1 µM. The value for `Cc1c(-c2ccnc(Nc3cccc([N+](=O)[O-])c3)n2)c(C)n2c1C(=O)NCC2` [Example I-5, 6,8-Dimethyl-7-[2-(3-nitro-phenylamino)-pyrimidin-4-yl]-3,4-dihydro-2H-pyrrolo[1,2-a]pyrazin-1-one] was less than 1 µM; that for `CNc1ccc(Nc2nccc(-c3c(C)c4n(c3C)CCNC4=O)n2)cc1OC` [Example I-76, 7-[2-(3-Methoxy-4-methylamino-phenylamino)-pyrimidin-4-yl]-6,8-dimethyl-3,4-dihydro-2H-pyrrolo[1,2-a]pyrazin-1-one] was less than 1 µM.

On to `Cc1c(-c2ccnc(Nc3ccc(CC(=O)N4CCOCC4)cc3)n2)c(C)n2c1C(=O)NCC2` [Example I-99, 6,8-Dimethyl-7-{2-[4-(2-morpholin-4-yl-2-oxo-ethyl)-phenylamino]-pyrimidin-4-yl}-3,4-dihydro-2H-pyrrolo[1,2-a]pyrazin-1-one], for which the IC50 is less than 1 µM. As to `Cc1c(-c2ccnc(Nc3ccc(CC(=O)O)cc3)n2)c(C)n2c1C(=O)NCC2` [Example I-70, {4-[4-(6,8-dimethyl-1-oxo-1,2,3,4-tetrahydro-pyrrolo[1,2-a]pyrazin-7-yl)-pyrimidin-2-ylamino]-phenyl}-acetic acid], the IC50 is less than 0.1 µM. In the case of `Cc1c(-c2ccnc(Nc3ccc4cn[nH]c4c3)n2)c(C)n2c1C(=O)NCC2` [Example I-11, 7-[2-(1H-Indazol-6-ylamino)-pyrimidin-4-yl]-6,8-dimethyl-3,4-dihydro-2H-pyrrolo[1,2-a]pyrazin-1-one], the IC50 was less than 1 µM. As for `Cc1ccc(Nc2nccc(-c3c(C)c4n(c3C)CCNC4=O)n2)cc1S(=O)(=O)N1CCOCC1` [Example I-36, 6,8-Dimethyl-7-{2-[4-methyl-3-(morpholine-4-sulfonyl)-phenylamino]-pyrimidin-4-yl}-3,4-dihydro-2H-pyrrolo[1,2-a]pyrazin-1-one], the IC50 was less than 1 µM. As for `COc1cc(Nc2nccc(-c3c(C)c4n(c3C)CCNC4=O)n2)ccc1N1CCN(C(C)=O)CC1` [Example I-9, 7-{2-[4-(4-Acetyl-piperazin-1-yl)-3-methoxy-phenylamino]-pyrimidin-4-yl}-6,8-dimethyl-3,4-dihydro-2H-pyrrolo[1,2-a]pyrazin-1-one], the IC50 is less than 1 µM.

For the molecule `Cc1c(-c2ccnc(Nc3ccc(Cc4ccncc4)cc3)n2)c(C)n2c1C(=O)NCC2` [Example I-54, 6,8-Dimethyl-7-[2-(4-pyridin-4-ylmethyl-phenylamino)-pyrimidin-4-yl]-3,4-dihydro-2H-pyrrolo[1,2-a]pyrazin-1-one], the IC50 was less than 1 µM. Consider `COc1cc(C(=O)NC2CCN(C)CC2)ccc1Nc1nccc(-c2c(C)c3n(c2C)CCNC3=O)n1` [Example I-114, 4-[4-(6,8-Dimethyl-1-oxo-1,2,3,4-tetrahydro-pyrrolo[1,2-a]pyrazin-7-yl)-pyrimidin-2-ylamino]-3-methoxy-N-(1-methyl-piperidin-4-yl)-benzamide], for which the IC50 was less than 10 µM. On to `Cc1c(-c2ccnc(Nc3ccc(-c4ccno4)cc3)n2)c(C)n2c1C(=O)NCC2` [Example I-82, 7-[2-(4-Isoxazol-5-yl-phenylamino)-pyrimidin-4-yl]-6,8-dimethyl-3,4-dihydro-2H-pyrrolo[1,2-a]pyrazin-1-one], for which the IC50 is less than 0.1 µM.

Take `Cc1c(-c2ccnc(Nc3ccc4c(c3)OCC(=O)N4)n2)c(C)n2c1C(=O)NCC2` [Example I-12, 7-[4-(6,8-Dimethyl-1-oxo-1,2,3,4-tetrahydro-pyrrolo[1,2-a]pyrazin-7-yl)-pyrimidin-2-ylamino]-4H-benzo[1,4]oxazin-3-one]: the concentration for half-maximal inhibition (IC50) is less than 1 µM. `CCN1CCn2c(C)c(-c3ccnc(Nc4cccc(-c5ccnc(C)n5)c4)n3)c(C)c2C1=O` [Example I-95, 2-Ethyl-6,8-dimethyl-7-{2-[3-(2-methyl-pyrimidin-4-yl)-phenylamino]-pyrimidin-4-yl}-3,4-dihydro-2H-pyrrolo[1,2-a]pyrazin-1-one]: the IC50 was less than 1 µM. Turning to `COCCNC(=O)Cc1ccc(Nc2nccc(-c3c(C)c4n(c3C)CCNC4=O)n2)cc1` [Example I-96, 2-{4-[4-(6,8-Dimethyl-1-oxo-1,2,3,4-tetrahydro-pyrrolo[1,2-a]pyrazin-7-yl)-pyrimidin-2-ylamino]-phenyl}-N-(2-methoxy-ethyl)-acetamide], the IC50 is less than 0.1 µM. For `CCN(CC)CCNS(=O)(=O)c1ccc(Nc2nccc(-c3c(C)c4n(c3C)CCNC4=O)n2)cc1C` [Example I-90, N-(2-Diethylamino-ethyl)-4-[4-(6,8-dimethyl-1-oxo-1,2,3,4-tetrahydro-pyrrolo[1,2-a]pyrazin-7-yl)-pyrimidin-2-ylamino]-2-methyl-benzenesulfonamide] the value was less than 10 µM. For the molecule `COc1cc(Nc2nccc(-c3c(C)c4n(c3C)CCNC4=O)n2)ccc1S(=O)(=O)NCCN(C)C` [Example I-23, N-(2-Dimethylamino-ethyl)-4-[4-(6,8-dimethyl-1-oxo-1,2,3,4-tetrahydro-pyrrolo[1,2-a]pyrazin-7-yl)-pyrimidin-2-ylamino]-2-methoxy-benzenesulfonamide], the IC50 is less than 1 µM. For the molecule `Cc1c(-c2ccnc(Nc3ccc(-c4csc(CC#N)n4)cc3)n2)c(C)n2c1C(=O)NCC2` [Example I-84], the IC50 is less than 1 µM.

On to `Cc1c(-c2ccnc(Nc3ccc4c(c3)OCCCO4)n2)c(C)n2c1C(=O)NCC2` [Example I-62, 7-[2-(3,4-Dihydro-2H-benzo[b][1,4]dioxepin-7-ylamino)-pyrimidin-4-yl]-6,8-dimethyl-3,4-dihydro-2H-pyrrolo[1,2-a]pyrazin-1-one], for which the IC50 is less than 0.1 µM. `Cc1c(-c2ccnc(Nc3cccc(S(=O)(=O)N4CCOCC4)c3)n2)c(C)n2c1C(=O)NCC2` [Example I-35, 8-Dimethyl-7-{2-[3-(morpholine-4-sulfonyl)-phenylamino]-pyrimidin-4-yl}-3,4-dihydro-2H-pyrrolo[1,2-a]pyrazin-1-one]: the half-inhibitory concentration (IC50) was less than 1 µM. Regarding `Cc1c(-c2ccnc(Nc3ccc(-c4csnn4)cc3)n2)c(C)n2c1C(=O)NCC2` [Example I-60, 6,8-Dimethyl-7-[2-(4-[1,2,3]thiadiazol-4-yl-phenylamino)-pyrimidin-4-yl]-3,4-dihydro-2H-pyrrolo[1,2-a]pyrazin-1-one], the IC50 was less than 0.1 µM. On to `COc1cc(Nc2nccc(-c3c(C)c4n(c3C)CCNC4=O)n2)ccc1S(=O)(=O)NC(C)C` [Example I-18, 4-[4-(6,8-Dimethyl-1-oxo-1,2,3,4-tetrahydro-pyrrolo[1,2-a]pyrazin-7-yl)-pyrimidin-2-ylamino]-N-isopropyl-2-methoxy-benzenesulfonamide], for which the IC50 was less than 0.1 µM. For `Cc1c(-c2ccnc(Nc3cccc(C(=O)O)c3)n2)c(C)n2c1C(=O)NCC2` [Example I-25, [4-(6,8-Dimethyl-1-oxo-1,2,3,4-tetrahydro-pyrrolo[1,2-a]pyrazin-7-yl)-pyrimidin-2-ylamino]-benzoic acid] the value was less than 1 µM; for `Cc1nccc(-c2cccc(Nc3nccc(-c4c(C)c5n(c4C)CCN(C)C5=O)n3)c2)n1` [Example I-93, 2,6,8-Trimethyl-7-{2-[3-(2-methyl-pyrimidin-4-yl)-phenylamino]-pyrimidin-4-yl}-3,4-dihydro-2H-pyrrolo[1,2-a]pyrazin-1-one], less than 0.1 µM; for `Cc1c(-c2ccnc(Nc3ccc(S(=O)(=O)N4CCCC4)cc3)n2)c(C)n2c1C(=O)NCC2` [Example I-55, 6,8-Dimethyl-7-{2-[4-(pyrrolidine-1-sulfonyl)-phenylamino]-pyrimidin-4-yl}-3,4-dihydro-2H-pyrrolo[1,2-a]pyrazin-1-one], less than 1 µM. The value for `Cc1c(-c2ccnc(Nc3ccc(S(=O)(=O)NC(C)C)cc3)n2)c(C)n2c1C(=O)NCC2` [Example I-19, 4-[4-(6,8-Dimethyl-1-oxo-1,2,3,4-tetrahydro-pyrrolo[1,2-a]pyrazin-7-yl)-pyrimidin-2-ylamino]-N-isopropyl-benzenesulfonamide] was less than 1 µM; that for `Cc1c(-c2ccnc(Nc3ccc(C(F)(F)F)cc3)n2)c(C)n2c1C(=O)NCC2` [Example I-68, 6,8-Dimethyl-7-[2-(4-trifluoromethyl-phenylamino)-pyrimidin-4-yl]-3,4-dihydro-2H-pyrrolo[1,2-a]pyrazin-1-one] was less than 10 µM.
